From US20210300926A1, “NEW BETA-LACTAMASE INHIBITORS TARGETING GRAM NEGATIVE BACTERIA” (priority 2017, published 2021)
Where two headings read alike, the source gives them in different places.

How the values were obtained:
[1] = system: E. coli Top10 producing KPC-2; format: cell-based, Escherichia coli; conditions: summary of Table 1
[2] = system: E. coli Top10 producing CTX-M15; assay: MIC determination by microdilution, E. coli Top10 producing CTX-M15; format: cell-based, Escherichia coli; conditions: for reduction in the MICs of β-lactams (in words): E. coli Top10 producing CTX-M-15, summary of Table 1
From the text: (§1) Plasmid and strain construction. For antibiotic susceptibility testing, the R-lactamase genes were cloned into the vector pTRC-99k, which is a derivative of pTRC99a (Pharmacia) obtained by replacing the β-lactamase resistance gene by a kanamycin resistance gene (Km, lacl, pTRC promoter, oriVcolEl; D. Mengin-Lecreulx, unpublished). Recombinant plasmids were introduced by electrotransformation into Escherichia coli Top10. For β-lactamase production, fragments of the β-lactamase genes encoding soluble enzymes, i.e. devoid of the signal peptides, were cloned into the vector pET-TEV generating translational fusions with a vector-encoded N-terminal 6×His Tag followed by a TEV cleavage site ([…]) (1).
(§2) MIC determination. MICs of β-lactams were determined by the microdilution method in MH broth according to Clinical and Laboratory Standards Institute (CLSI) recommendations (12). Diazabicyclooctane were used at a fixed concentration of 15 μM (4 μg/ml for avibactam). Clavulanate was tested at 4 μg/ml. IPTG (500 μM) was added to the microdilution plates to induce production of the -lactamase. The precultures were grown in BHI broth containing IPTG (500 μM) and kanamycin (50 μg/ml) for plasmid maintenance. Reported MICs are the medians from five biological repeats obtained in two independent experiments.

KPC-2 = target: T1, KPC-2 (Klebsiella pneumoniae, UniProt Q9F663); assay: Kinetic parameters of β-lactamase carbamoylation/de-carbamoylation (nitrocefin), KPC-2; format: biochemical; conditions: KPC-2; 20° C., nitrocefin 100 μM, MES pH 6.4
T1 construct: fragments of the β-lactamase genes encoding soluble enzymes, i.e. devoid of the signal peptides; 6xHis tag followed by TEV cleavage site ([…]) (N); made in house; host or cells: E. coli BL21 (DE3)
T1 sequence (Q9F663 25-293 limits assumed): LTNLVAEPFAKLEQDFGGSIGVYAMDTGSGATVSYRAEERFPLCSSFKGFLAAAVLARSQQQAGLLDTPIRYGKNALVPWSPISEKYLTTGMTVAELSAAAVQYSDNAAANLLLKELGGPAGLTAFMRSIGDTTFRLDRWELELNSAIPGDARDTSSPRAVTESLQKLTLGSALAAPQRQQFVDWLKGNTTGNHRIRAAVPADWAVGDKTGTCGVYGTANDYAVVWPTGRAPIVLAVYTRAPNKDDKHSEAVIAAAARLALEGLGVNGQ
From the text: as §1
(§3) Production and purification of β-lactamases. E. coli BL21 (DE3) harboring recombinant plasmids were grown in brain heart infusion (BHI) broth supplemented with kanamycin (50 μg/ml) at 37° C. under vigorous shaking until the optical density at 600 nm (OD600) reached 0.8. Isopropyl β-D-1-thiogalactopyranoside IPTG (0.5 mM) was added and incubation was continued at 16° C. for 18 h. Bacteria were harvested by centrifugation, re-suspended in 25 mM Tris-HCl (pH 7.5) containing 300 mM NaCl (buffer A) and lysed by sonication. The enzymes were purified from clarified lysates by affinity chromatography (NiNTA agarose, Sigma-Aldrich) and size exclusion chromatography in buffer A (Superdex 200 HL26/60, Amersham Pharmacia Biotech). Protein concentration was determined by the Biorad protein assay using bovine serum albumin as a standard.
(§4) Determination of kinetic parameters. […] Briefly, the initial velocity (vi) was determined by spectrophotometry for various concentrations of β-lactams [S] and a fixed concentration of β-lactamase [E]. The values of vi were plotted as a function of [S]. The kinetic constants Km and kcat were determined by fitting the equation […] to the resulting curve. The molecular extinction coefficient was 14,600 M^−1 cm^−1 at 486 nm for nitrocefin. […] Kinetics constants were deduced from a minimum of 6 progress curves obtained in a minimum of two independent experiments.

CTX-M-15 = target: T2, CTX-M-15 (Escherichia coli, UniProt Q9EXV5); assay: Kinetic parameters of β-lactamase carbamoylation/de-carbamoylation (nitrocefin), CTX-M-15; format: biochemical; conditions: CTX-M-15; 20° C., nitrocefin 100 μM, MES pH 6.4
T2 construct: fragments of the β-lactamase genes encoding soluble enzymes, i.e. devoid of the signal peptides; made in house; host or cells: E. coli BL21 (DE3)
T2 sequence (Q9EXV5 entry or part of it): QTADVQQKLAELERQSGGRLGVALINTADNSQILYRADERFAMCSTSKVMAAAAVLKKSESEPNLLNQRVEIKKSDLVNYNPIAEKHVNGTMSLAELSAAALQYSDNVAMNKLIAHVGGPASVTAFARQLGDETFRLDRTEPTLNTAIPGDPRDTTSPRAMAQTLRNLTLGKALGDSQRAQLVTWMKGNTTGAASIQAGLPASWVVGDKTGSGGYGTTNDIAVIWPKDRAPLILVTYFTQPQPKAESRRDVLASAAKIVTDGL
From the text: as §1, §3, §4

TEM-1 = target: T3, TEM-1 (Escherichia coli, UniProt P62593); assay: Kinetic parameters of β-lactamase carbamoylation/de-carbamoylation (nitrocefin), TEM-1; format: biochemical; conditions: 20° C., nitrocefin 100 μM, MES pH 6.4
T3 construct: fragments of the β-lactamase genes encoding soluble enzymes, i.e. devoid of the signal peptides; made in house; host or cells: E. coli BL21 (DE3)
T3 sequence (P62593 24-286 limits assumed): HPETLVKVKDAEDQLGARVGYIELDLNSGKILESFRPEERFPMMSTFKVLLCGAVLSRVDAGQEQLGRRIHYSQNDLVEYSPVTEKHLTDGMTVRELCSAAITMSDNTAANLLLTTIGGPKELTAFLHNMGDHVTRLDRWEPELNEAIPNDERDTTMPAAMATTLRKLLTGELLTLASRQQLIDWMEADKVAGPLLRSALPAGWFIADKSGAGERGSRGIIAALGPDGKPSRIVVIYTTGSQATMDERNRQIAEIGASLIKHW
From the text: as §1, §3, §4

AmpCEclo = target: T4, AmpCEclo (Enterobacter cloacae, UniProt P05364); format: biochemical; conditions: AmpCEclo; 20° C., nitrocefin 100 μM, MES pH 6.4
T4 construct: fragments of the β-lactamase genes encoding soluble enzymes, i.e. devoid of the signal peptides; 6xHis tag followed by TEV cleavage site ([…]) (N); made in house; host or cells: E. coli BL21 (DE3)
T4 sequence (P05364 21-381): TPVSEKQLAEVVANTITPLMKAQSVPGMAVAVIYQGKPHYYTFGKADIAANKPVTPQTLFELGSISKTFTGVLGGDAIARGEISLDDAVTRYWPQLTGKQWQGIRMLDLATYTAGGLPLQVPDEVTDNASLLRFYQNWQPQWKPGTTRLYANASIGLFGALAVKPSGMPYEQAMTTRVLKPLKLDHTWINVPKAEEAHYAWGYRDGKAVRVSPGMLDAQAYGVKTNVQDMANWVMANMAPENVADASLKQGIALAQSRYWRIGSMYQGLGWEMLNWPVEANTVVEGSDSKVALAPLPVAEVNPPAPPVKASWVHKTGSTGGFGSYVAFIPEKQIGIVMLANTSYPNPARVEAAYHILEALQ
Procedure: as §3, §4

E. coli Top10 = assay: MIC determination by microdilution, E. coli Top10 without β-lactamase (None); format: cell-based
From the text: as §1, §2

[3] = system: E. coli Top10 producing AmpCEcl; assay: MIC determination by microdilution, E. coli Top10 producing AmpCEcl; format: cell-based; conditions: Escherichia coli, read-out: MIC of β-lactam, inhibitor None
From the text: as §1, §2

[4] = system: E. coli Top10 producing OXA-48; assay: MIC determination by microdilution, E. coli Top10 producing OXA-48; format: cell-based; conditions: Escherichia coli, read-out: MIC of β-lactam, inhibitor None
From the text: as §1, §2

[5] = system: E. coli Top10 producing TEM-1; assay: MIC determination by microdilution, E. coli Top10 producing TEM-1; format: cell-based; conditions: Escherichia coli, read-out: MIC of β-lactam, inhibitor None
From the text: as §1, §2

Row | SMILES | reduction in the MICs of β-lactams (in words) [1] | reduction in the MICs of β-lactams (in words) [2] | Carbamoylation efficacy of β-lactamases by diazabicyclooctanes (KPC-2) | De-carbamoylation rate constant k−2 for β-lactamase-diazabicyclooctane adducts (KPC-2) | Carbamoylation efficacy of β-lactamases by diazabicyclooctanes (CTX-M-15) | De-carbamoylation rate constant k−2 for β-lactamase-diazabicyclooctane adducts (CTX-M-15) | Carbamoylation efficacy of β-lactamases by diazabicyclooctanes (TEM-1) | De-carbamoylation rate constant k−2 for β-lactamase-diazabicyclooctane adducts (TEM-1) | Carbamoylation efficacy of β-lactamases by diazabicyclooctanes (AmpCEclo) | De-carbamoylation rate constant k−2 for β-lactamase-diazabicyclooctane adducts (AmpCEclo) | further results
1 | C[Si](C)(C)c1cn(C[C@@H]2CC[C@@H]3CN2C(=O)N3OS(=O)(=O)O)nn1 [Compound 2a.i] | Minor reduction | Minor reduction | (9.7 ± 0.8) × 10^1 M^−1 s^−1 | (2.9 ± 0.2) × 10^−3 s−1 | (4.0 ± 0.1) × 10^2 M^−1 s^−1 | (3.9 ± 0.9) × 10^−4 s−1 | (3.7 ± 0.5) × 10^2 M^−1 s^−1 | (2.9 ± 0.9) × 10^−3 s−1 | (2.4 ± 0.1) × 10^1 M^−1 s^−1 | (1.3 ± 0.9) × 10^−3 s−1 | –
2 | C[C@H]1[C@H](NC(=O)/C(=N\OC(C)(C)C(=O)O)c2csc(N)n2)C(=O)N1S(=O)(=O)O [Aztreonam] | – | – | – | – | – | – | – | – | – | – | MIC (E. coli Top10; Escherichia coli, TOP10; read-out: MIC of β-lactam, inhibitor None): 0.5 µg/mL
3 | O=C(O)CCc1cn(C[C@@H]2CC[C@@H]3CN2C(=O)N3OS(=O)(=O)[O-])nn1.[Na+] [Compound 1a.i14] | Minor reduction | Minor reduction | (7.0 ± 0.8) × 10^1 M^−1 s^−1 | (7.9 ± 1.7) × 10^−4 s−1 | (1.1 ± 0.1) × 10^2 M^−1 s^−1 | (3.9 ± 0.8) × 10^−4 s−1 | (7.2 ± 0.6) × 10^2 M^−1 s^−1 | (8.2 ± 8.9) × 10^−4 s−1 | (9.9 ± 0.9) × 10^1 M^−1 s^−1 | (1.6 ± 0.2) × 10^−3 s−1 | –
4 | COCc1cn(C[C@@H]2CC[C@@H]3CN2C(=O)N3OS(=O)(=O)[O-])nn1.[Na+] [Compound 1a.i13] | Minor reduction | Minor reduction | (1.8 ± 0.2) × 10^1 M^−1 s^−1 | (1.2 ± 0.1) × 10^−3 s−1 | (1.2 ± 0.4) × 10^2 M^−1 s^−1 | (1.3 ± 1.3) × 10^−3 s−1 | (8.3 ± 0.5) × 10^2 M^−1 s^−1 | (1.6 ± 0.5) × 10^−3 s−1 | (1.5 ± 0.5) × 10^1 M^−1 s^−1 | (1.3 ± 0.6) × 10^−3 s−1 | –
5 | CC1(C)S[C@@H]2[C@H](NC(=O)[C@H](N)c3ccc(O)cc3)C(=O)N2[C@H]1C(=O)O [Amoxicillin, reference compound] | – | – | – | – | – | – | – | – | – | – | MIC (E. coli Top10; Escherichia coli, TOP10, read-out: MIC of β-lactam, inhibitor None): 4 µg/mL; MIC ([2]; Escherichia coli, read-out: MIC of β-lactam, inhibitor None): 2050 µg/mL
6 | CO/N=C(\C(=O)N[C@@H]1C(=O)N2C(C(=O)O)=C(COC(C)=O)CS[C@H]12)c1csc(N)n1 [Cefotaxime] | – | – | – | – | – | – | – | – | – | – | MIC (E. coli Top10; Escherichia coli; Cefotaxime alone; E. coli Top10, β-lactamase None; read-out: MIC of β-lactam, inhibitor None): 0.12 µg/mL; MIC [3]: 128 µg/mL
7 | C[C@@H](O)[C@H]1C(=O)N2C(C(=O)O)=C(S[C@@H]3CN[C@H](C(=O)Nc4cccc(C(=O)O)c4)C3)[C@H](C)[C@H]12 [Ertapenem] | – | – | – | – | – | – | – | – | – | – | MIC (E. coli Top10; Escherichia coli; Ertapenem alone; E. coli Top10, β-lactamase None; read-out: MIC of β-lactam, inhibitor None): < 0.03 µg/mL; MIC [4]: 16 µg/mL
8 | Cn1nnnc1SCC1=C(C(=O)O)N2C(=O)[C@@H](NC(=O)[C@H](O)c3ccccc3)[C@H]2SC1 [Cefamandole] | – | – | – | – | – | – | – | – | – | – | MIC (E. coli Top10; Escherichia coli; Cefamandole alone; E. coli Top10, β-lactamase None; read-out: MIC of β-lactam, inhibitor None): 2 µg/mL; MIC [5]: > 2050 µg/mL
